Test results as given in patent publication US6410547B1, “Phenylpyridine derivatives useful as phosphodiesterase inhibitors” (Novartis AG, priority 1996, dated 2002).
Structures can show the parent of a compound that is named as a salt.

Row | Structure (SMILES) | melting point [°C]
1 | COc1ccc(-c2ccncc2)cc1-c1cccc(Cl)c1 (as salt: hydrochloride) [Example 7, 4-[2-(Methoxy)-3′-(chloro)biphenyl-5-yl]pyridine] | 156 to 210
2 | COc1ccc(-c2ccncc2)cc1-c1cccc(Oc2ccccc2)c1 (as salt: hydrochloride) [Example 9, 4-[2-(Methoxy)-3′-(phenoxy)biphenyl-5-yl]pyridine] | 184 to 204
3 | COc1ccc(-c2ccncc2)cc1-c1ccc(Oc2ccccc2)cc1 (as salt: hydrochloride) [Example 10, 4-[2-(Methoxy)4′-(phenoxy)biphenyl-5-yl]pyridine] | 173 to 218
4 | COc1ccc(-c2ccncc2)cc1-c1ccc(F)c(Cl)c1 (as salt: hydrochloride) [Example 11, 4-[2-(Methoxy)-3′-(chloro)4′-(fluoro)biphenyl-5-yl]pyridine] | 115
5 | COc1ccc(-c2ccncc2)cc1-c1ccc2nonc2c1 [Example 5, 4-[4-Methoxy-3-(5-benzofurazanyl)phenyl]pyridine] | 187 to 192
6 | CCOC(=O)c1ccc(-c2ccc(OC)c(-c3cccc([N+](=O)[O-])c3)c2)cc1 [Example 13, 4′-Methoxy-3′-(3-nitrophenyl)-[1,1′-biphenyl]-4-carboxylic acid, ethyl ester] | 106 to 108
7 | CCOC(=O)c1cccc(-c2ccc(OC)c(-c3cccc([N+](=O)[O-])c3)c2)c1 [Example 14, 4′-Methoxy-3′-(3-nitrophenyl)-[1,1′-biphenyl]-3-carboxylic acid, ethyl ester] | 87 to 89
8 | CCOC(=O)c1ccc(-c2ccc(OC)c(-c3cccc([N+](=O)[O-])c3)c2)cc1C [Example 15, 4′-Methoxy-3-methyl-3′-(3-nitrophenyl)-[1,1′-biphenyl]-4-carboxylic acid, ethyl ester] | 88 to 90
9 | CCOC(=O)c1ccc(-c2ccc(OC)c(-c3ccc4nonc4c3)c2)cc1 [Example 16, 3′-(5-Benzofurazanyl)-4′-methoxy-[1,1′-biphenyl]-4-carboxylic acid, ethyl ester] | 166 to 168
10 | COc1ccc(-c2ccc(C(=O)OCC(C)(C)C)cc2)cc1-c1ccc2nonc2c1 [Example 17, 3′-(5-Benzofurazanyl)-4′-methoxy-[1,1′-biphenyl]-4-carboxylic acid, 2,2-dimethylpropyl ester] | 131 to 136
11 | COc1ccc(-c2cccc(C(=O)O)c2)cc1-c1cccc([N+](=O)[O-])c1 [Example 19, 4′-Methoxy-3′-(3-nitrophenyl)-[1,1′-biphenyl]-3-carboxylic acid] | 223 to 228
12 | COc1ccc(-c2ccc(C(=O)O)c(C)c2)cc1-c1cccc([N+](=O)[O-])c1 [Example 20, 4′-Methoxy-3-methyl-3′-(3-nitrophenyl)-[1,1′-biphenyl]-4-carboxylic acid] | 278 to 281
13 | COc1ccc(-c2ccc(C(=O)O)cc2)cc1-c1ccc2nonc2c1 [Example 21, 3′-(5-Benzofurazanyl)-4′-methoxy-[1,1′-biphenyl]-4-carboxylic acid] | > 300
14 | COc1ccc(-c2ccc(C(=O)O)cc2)cc1-c1cccc(Cl)c1 [Example 22, 4′-Methoxy-3′-(3-chlorophenyl)-[1,1′-biphenyl]-4-carboxylic acid] | 250 to 252
15 | COc1ccc(-c2ccc(C(=O)O)cc2)cc1-c1cccc(C#N)c1 [Example 23, 4′-Methoxy-3′-(3-cyanophenyl)-[1,1′-biphenyl]-4-carboxylic acid] | 280 to 285
16 | COc1ccc(-c2ccc(C(N)=O)cc2)cc1-c1cccc([N+](=O)[O-])c1 [Example 24, 4′-Methoxy-3′-(3-nitrophenyl)-[1,1′-biphenyl]-4-carboxamide] | 201 to 205
17 | COc1ccc(-c2cccc(C(N)=O)c2)cc1-c1cccc([N+](=O)[O-])c1 [Example 25, 4′-Methoxy-3′-(3-nitrophenyl)-[1,1′-biphenyl]-3-carboxamide] | 118 to 120
18 | COc1ccc(-c2ccc(C(N)=O)c(C)c2)cc1-c1cccc([N+](=O)[O-])c1 [Example 26, 4′-Methoxy-3-methyl-3′-(3-nitrophenyl)-[1,1′-biphenyl]-4-carboxamide] | 179 to 184
19 | CNC(=O)c1ccc(-c2ccc(OC)c(-c3cccc([N+](=O)[O-])c3)c2)cc1 [Example 27, N-Methyl-4′-methoxy-3′-(3-nitrophenyl)-[1,1′-biphenyl]-4-carboxamide] | 171 to 172
20 | COc1ccc(-c2ccc3nccn3c2)cc1-c1ccc2nonc2c1 [Example 28, 6-[4-Methoxy-3-(5-benzofurazanyl)phenyl]imidazo[1,2-a]pyridine] | 190 to 196
